Data as given in patent US4345938A, “Herbicidal 2-haloacetanilides” (Monsanto Company, priority 1980, dated 1982).
Like-named read-outs stand apart in the source and are kept apart here.

What was measured:
Format in all cases: in vivo
[1] = tested on: Monochoria vaginalis; assay: Field transplant rice test, applied 0 DAT, MV; conditions: Pontederia vaginalis, 0 h, read-out: Percent Inhibition, MV; for inhibition at 375 g/ha: 0.375 Kg/Ha; for inhibition at 750 g/ha: 0.75 Kg/Ha; for inhibition at 1500 g/ha: 1.5 Kg/Ha; for inhibition at 3000 g/ha: 3.0 Kg/Ha
Description: (§1) The test data in Table III for all compounds was obtained under identical test conditions. The weeds used in the tests herein have the following abbreviations in the tables: Echinochloa crus-galli (EC), Monochloria vaginalis (MV), Cyperus Serotinus (CS), Eleocharis Kuroguwai (EK) and Sagittaria trifolia (ST).
(§2) In further comparative tests, a preferred compound of this invention (Example 1) was tested in the field with prior art Compounds A-D. These tests were conducted under conditions reflecting herbicide application times generally favorable to all herbicides in the test. The timing of application of herbicides to transplant rice is very important, whether, as in some instances, prior to transplanting the rice; in other instances, at the time of transplanting or else after transplanting. Application times are conventionally referred to as "days before transplant" (DBT) or "days after transplant" ("DAT"). The field test data in Table IV was obtained from a test in which the herbicides were applied at the time of transplant, i.e., "0 DAT", with observations being made weekly up to six weeks after transplant ("WAT") beginning at two weeks after transplant; for illustrative and representative purposes, only the early, middle and late period observations, i.e., 2 WAT, 4 WAT and 6 WAT, are shown in Table IV. The data in Table IV is for rates of application common to all herbicides in the test, i.e., from 3.0 kg/ha (2.67 lb/A) down to 0.375 kg/ha (0.34 lb/A). All herbicides were applied at their actual or expected use rates, i.e., as granules containing 2.5% by weight herbicide for the compound of Example 1, Compounds B, C and D and 5.0% by weight for Compound A.

[2] = tested on: Eleocharis kuroguwai; assay: Field transplant rice test, applied 9 DAT, EK; conditions: for inhibition at 375 g/ha / inhibition at 750 g/ha / inhibition at 1500 g/ha / inhibition at 3000 g/ha: Eleocharis kuroguwai, 216 h, read-out: Percent Inhibition, EK; for inhibition at 375 g/ha: 0.375 Kg/Ha; for inhibition at 750 g/ha: 0.75 Kg/Ha; for inhibition at 1500 g/ha: 1.5 Kg/Ha; for inhibition at 3000 g/ha: 3.0 Kg/Ha
Source text: (§3) In the discussion of data below, occasional reference is made to herbicide application rates symbolized as "GR15 " and "GR85 "; these rates are given in kilograms per hectare (kg/ha) which are convertible into pounds per acre (lbs/A) by dividing the kg/ha rate by 1.12.
(§4) A further guide to the effectiveness of a chemical as a selective herbicide is the "selectivity factor" ("SF") for a herbicide in given crops and weeds. The selectivity factor is a measure of the relative degree of crop safety and weed injury and is expressed in terms of the GR15 /GR85 ratio, i.e., the GR15 rate for the crop divided by the GR85 rate for the weed, both rates in kg/ha (lb/A.)
as §1, §2
(§5) In Table V are presented field data showing the relative performance of the compound of Example 1 and Compounds A-D applied 9 DAT, with observations being made weekly from 3 WAT to 7 WAT; again, for illustrative and representative purposes, only the early, middle and late period observations are reported in Table V, the herbicide rates and concentrations of active ingredients the same as is shown in Table IV.

[3] = tested on: Echinochloa crus-galli; assay: Field transplant rice test, applied 9 DAT, EC; conditions: for inhibition at 375 g/ha / inhibition at 750 g/ha / inhibition at 1500 g/ha / inhibition at 3000 g/ha: Echinochloa crus-galli, 216 h, read-out: Percent Inhibition, EC; for inhibition at 375 g/ha: 0.375 Kg/Ha; for inhibition at 750 g/ha: 0.75 Kg/Ha; for inhibition at 1500 g/ha: 1.5 Kg/Ha; for inhibition at 3000 g/ha: 3.0 Kg/Ha
Source text: as §3, §4, §1, §2, §5

[4] = tested on: Sagittaria trifolia; assay: Field transplant rice test, applied 9 DAT, ST; conditions: 216 h, read-out: Percent Inhibition, ST; for inhibition at 375 g/ha: 0.375 Kg/Ha; for inhibition at 750 g/ha: 0.75 Kg/Ha; for inhibition at 1500 g/ha: 1.5 Kg/Ha; for inhibition at 3000 g/ha: 3.0 Kg/Ha
Description: as §1, §2, §5

[5] = tested on: Monochoria vaginalis; assay: Field transplant rice test, applied 9 DAT, MV; conditions: for inhibition at 375 g/ha / inhibition at 750 g/ha / inhibition at 1500 g/ha / inhibition at 3000 g/ha: Pontederia vaginalis, 216 h, read-out: Percent Inhibition, MV; for inhibition at 375 g/ha: 0.375 Kg/Ha; for inhibition at 750 g/ha: 0.75 Kg/Ha; for inhibition at 1500 g/ha: 1.5 Kg/Ha; for inhibition at 3000 g/ha: 3.0 Kg/Ha
Source text: as §3, §4, §1, §2, §5

Compound: CCCOCCN(C(=O)CCl)c1c(CC)cccc1CC [Compound D, 2',6'-diethyl-N-(n-propoxyethyl)-2-chloroacetanilide]
- inhibition at 375 g/ha ([1]; 2 WAT): 90%
- inhibition at 375 g/ha ([1]; 4 WAT): 95%
- inhibition at 375 g/ha ([1]; 6 WAT): 83%
- inhibition at 750 g/ha ([1]; 2 WAT): 100%
- inhibition at 750 g/ha ([1]; 4 WAT): 99%
- inhibition at 750 g/ha ([1]; 6 WAT): 100%
- inhibition at 1500 g/ha ([1]; 2 WAT): 98%
- inhibition at 1500 g/ha ([1]; 4 WAT): 100%
- inhibition at 1500 g/ha ([1]; 6 WAT): 100%
- inhibition at 3000 g/ha ([1]; 2 WAT): 100%
- inhibition at 3000 g/ha ([1]; 4 WAT): 98%
- inhibition at 3000 g/ha ([1]; 6 WAT): 98%
- selectivity factor (GR15/GR85), EK in transplant rice ([2]; 3 WAT): about 1
- inhibition at 375 g/ha ([2]; 3 WAT): 50%
- inhibition at 375 g/ha ([2]; 5 WAT): 23%
- inhibition at 375 g/ha ([2]; 7 WAT): 0%
- inhibition at 750 g/ha ([2]; 3 WAT): 45%
- inhibition at 750 g/ha ([2]; 5 WAT): 20%
- inhibition at 750 g/ha ([2]; 7 WAT): 0%
- inhibition at 1500 g/ha ([2]; 3 WAT): 52%
- inhibition at 1500 g/ha ([2]; 5 WAT): 30%
- inhibition at 1500 g/ha ([2]; 7 WAT): 0%
- inhibition at 3000 g/ha ([2]; 3 WAT): 84%
- inhibition at 3000 g/ha ([2]; 5 WAT): 78%
- inhibition at 3000 g/ha ([2]; 7 WAT): 45%
- inhibition at 375 g/ha ([3]; 3 WAT): 62%
- inhibition at 375 g/ha ([3]; 5 WAT): 48%
- inhibition at 375 g/ha ([3]; 7 WAT): 57%
- inhibition at 750 g/ha ([3]; 3 WAT): 88%
- inhibition at 750 g/ha ([3]; 5 WAT): 92%
- inhibition at 750 g/ha ([3]; 7 WAT): 88%
- inhibition at 1500 g/ha ([3]; 3 WAT): 78%
- inhibition at 1500 g/ha ([3]; 5 WAT): 75%
- inhibition at 1500 g/ha ([3]; 7 WAT): 78%
- inhibition at 3000 g/ha ([3]; 3 WAT): 100%
- inhibition at 3000 g/ha ([3]; 5 WAT): 100%
- inhibition at 3000 g/ha ([3]; 7 WAT): 100%
- selectivity factor (GR15/GR85), EC in transplant rice ([3]; between 3 WAT and 7 WAT): 1
- inhibition at 375 g/ha ([4]; 3 WAT): 45%
- inhibition at 375 g/ha ([4]; 5 WAT): 12%
- inhibition at 375 g/ha ([4]; 7 WAT): 7%
- inhibition at 750 g/ha ([4]; 3 WAT): 42%
- inhibition at 750 g/ha ([4]; 5 WAT): 25%
- inhibition at 750 g/ha ([4]; 7 WAT): 18%
- inhibition at 1500 g/ha ([4]; 3 WAT): 43%
- inhibition at 1500 g/ha ([4]; 5 WAT): 25%
- inhibition at 1500 g/ha ([4]; 7 WAT): 22%
- inhibition at 3000 g/ha ([4]; 3 WAT): 73%
- inhibition at 3000 g/ha ([4]; 5 WAT): 60%
- inhibition at 3000 g/ha ([4]; 7 WAT): 52%
- inhibition at 375 g/ha ([5]; 3 WAT): 95%
- inhibition at 375 g/ha ([5]; 5 WAT): 98%
- inhibition at 375 g/ha ([5]; 7 WAT): 95%
- inhibition at 750 g/ha ([5]; 3 WAT): 100%
- inhibition at 750 g/ha ([5]; 5 WAT): 87%
- inhibition at 750 g/ha ([5]; 7 WAT): 100%
- inhibition at 1500 g/ha ([5]; 3 WAT): 100%
- inhibition at 1500 g/ha ([5]; 5 WAT): 100%
- inhibition at 1500 g/ha ([5]; 7 WAT): 100%
- inhibition at 3000 g/ha ([5]; 3 WAT): 100%
- inhibition at 3000 g/ha ([5]; 5 WAT): 100%
- inhibition at 3000 g/ha ([5]; 7 WAT): 100%
- selectivity factor (GR15/GR85), MV in transplant rice ([5]; between 3 WAT and 7 WAT): 8
